Data reported in patent publication EP0952771B1, “NOVEL SAPONIN COMPOSITIONS AND USES THEREOF” (priority 1996, dated 1998).

Columns and labels:
E.G7-OVA target cells = assay: Cytotoxic T lymphocyte (CTL) 51Cr cytotoxicity assay with splenic mononuclear cells of immunized mice; format: in vivo, C57BL/6 mice; details: subcutaneously at week 1, 3 and 5
Experimental: (§1) All experiments were carried out in C57BL/6 mice (female, 8-12 weeks of age). The synergistic adjuvant-effect of the QS-21/QS-7 mixtures was assessed by two parameters: (1) the ability of these mixtures to improve antibody titers to a subunit antigen, ovalbumin, in mice; and (2) the ability of these mixtures to improve an ovalbumin-specific cytotoxic T lymphocyte (killer cell) response in mice.
The experimental techniques were the following. The mice were immunized subcutaneously at week 1, 3, and 5 with 0.2 ml of the indicated formulations in phosphate-buffered saline. Mice were immunized in groups of five. Sera and spleens were harvested at weeks 7 to 9. Sera was assayed for anti-ovalbumin antibody response by enzyme immunoassay. Briefly, a 96 well Immulon plate was coated with 10 µg/ml ovalbumin in phosphate-buffered saline (PBS) overnight at 4°C. These plates were blocked with 10% normal goat serum in PBS (diluent) for one hour at room temperature. Serial 1:10 dilutions of serum were made in diluent and were incubated on the plates for one hour at room temperature or overnight at 4°C. An enzyme conjugate of anti-mouse IgG (or anti-mouse IgG subclass) was diluted in diluent and incubated on the plate. A colorimetric enzyme substrate, tetramethylbenzidine, was used to assay for binding of anti-ovalbumin antibody. Spleens from immunized mice were used to assay for the cytotoxic T lymphocyte (CTL) response. The effector cells for the (CTL) assay were splenic mononuclear cells from the harvested spleens. The antigen-positive target cells for the assay were E.G7-OVA cells, which are an MHC class II antigen-negative EL4 mouse cell line, transfected with the ovalbumin gene. […] EL4 cells were used as an ovalbumin-negative target cell line. Prior to assay, splenic mononuclear cells were stimulated with antigen to induce maturation of precursor CTL in the effector cell population. The antigens used for stimulation were mitomycin C treated E.G7-OVA cells (incubated with spleen cells at a ratio of 20:1 spleen cells: E.G7-OVA cells) or denatured ovalbumin (25 µg/ml). […]

anti-ovalbumin antibody = assay: Anti-ovalbumin antibody response in serum by enzyme immunoassay; format: in vivo, C57BL/6 mice; details: 0.625 µg given individually; titer not higher than no adjuvant
Experimental: as §1
The experimental techniques were the following. The mice were immunized subcutaneously at week 1, 3, and 5 with 0.2 ml of the indicated formulations in phosphate-buffered saline. Mice were immunized in groups of five. Sera and spleens were harvested at weeks 7 to 9. Sera was assayed for anti-ovalbumin antibody response by enzyme immunoassay. Briefly, a 96 well Immulon plate was coated with 10 µg/ml ovalbumin in phosphate-buffered saline (PBS) overnight at 4°C. These plates were blocked with 10% normal goat serum in PBS (diluent) for one hour at room temperature. Serial 1:10 dilutions of serum were made in diluent and were incubated on the plates for one hour at room temperature or overnight at 4°C. An enzyme conjugate of anti-mouse IgG (or anti-mouse IgG subclass) was diluted in diluent and incubated on the plate. A colorimetric enzyme substrate, tetramethylbenzidine, was used to assay for binding of anti-ovalbumin antibody. […]

ovalbumin antigen = details: doses below 2.5 µg; cited from earlier work
ovalbumin = details: at 2.5 µg or lower; cited from earlier work
mice = details: mouse, in vivo; cited from earlier work

With QS-21 the “stimulating a CTL response” value (E.G7-OVA target cells; saponin dose 0.625 µg given alone with ovalbumin) was “ineffective”, the “stimulating a CTL response” value (E.G7-OVA target cells; saponin dose 1.25 µg given alone with ovalbumin) was “ineffective” and the “stimulating a CTL response” value (E.G7-OVA target cells; saponin dose 20 µg given alone with ovalbumin) was “highly effective”. The “titer compared with no adjuvant” value (anti-ovalbumin antibody) was “suboptimal”, the “adjuvant for raising an antibody response to the ovalbumin antigen” value (ovalbumin antigen) was “ineffective” and the “cytotoxic T lymphocyte (CTL) response to ovalbumin” value (ovalbumin) was “minimal”. The toxicity in mice (mice) was “least toxic”.
